Assay results from US8551958B2, “Galactosylated pro-drugs of non-steroidal anti-inflammatories with improved pharmacokinetic characteristics and reduced toxicity of the starting drug” (Stewart Italia Srl, priority 2008, dated 2013).
“Also recorded” adds a separate entry of the source.

Legend:
PPAR-gamma = assay: Western blot, stomach, PPAR-gamma protein expression; format: in vivo, mice; conditions: ketorolac 10 mg/Kg, ketogal 16.3 mg/Kg, oral, 3, 5 and 7 days
Excerpt: (§1) Animals were sacrificed and then liver, stomach and kidney were collected in glass tubes and analysed histologically and biochemically.

COX-1 = assay: Western blot, stomach, COX-1 protein expression; format: in vivo, mice; conditions: ketorolac 10 mg/Kg, ketogal 16.3 mg/Kg, oral, 3, 5 and 7 days; versus control stomachs
Excerpt: as §1

PGE synthase = assay: Western blot, stomach, PGE synthase protein expression; format: in vivo, mice; conditions: ketorolac 10 mg/Kg, ketogal 16.3 mg/Kg, oral, 3, 5 and 7 days
Excerpt: as §1

TNF-alpha = assay: Western blot in liver lysates, TNF-alpha; format: in vivo, mice; conditions: ketogal 16.3 mg/Kg oral for 3, 5 and 7 days
Procedure: as §1
(§2) Liver samples were fixed in 10% buffered formalin and embedded in paraffin, sliced, and stained with hematoxylin & eosin (H&E) for assessment of liver pathology. […] To confirm histological data, western blot analysis for TNF-alpha, IL-6 and malonyldialdehyde assay were then performed in liver lysates.

lipid peroxidation = assay: Malonyldialdehyde assay in liver lysates; format: in vivo, mice; conditions: ketogal 16.3 mg/Kg oral for 3, 5 and 7 days
Procedure: as §1, §2

[1] = tested on: writhing induced by acetic acid; assay: Writhing test induced by acetic acid; format: in vivo, mice
Procedure: The analgesic activity was studied using the “writhing test” using acetic acid and using magnesium sulphate. To the mice there was administered by intraperitoneal route 1 mL of solution at 1% of acetic acid, and the number of writhing events was evaluated for 20 min, after 5 min from administration of the solution of acetic acid. Writhing is defined as a contraction of the abdominal muscles accompanied by elongation of the body and of the rear legs. Ketorolac and Ketogal were administered by oral route 60 min prior to administration of the solution of acetic acid. The analgesic effect is expressed in number of writhing events as compared to the control.

IL-6 = assay: Western blot in liver lysates, IL-6; format: in vivo, mice; conditions: ketogal 16.3 mg/Kg oral for 3, 5 and 7 days
Procedure: as §1, §2

male Swiss mice = assay: Chronic and sub-chronic experiments: liver, kidney and stomach examination; format: in vivo
Procedure: as §1, §2

[2] = tested on: mouse carrageenan paw oedema; assay: Carrageenan oedema test; format: in vivo, mice
Procedure: Anti-inflammatory activity was tested by means of the carrageenan oedema test. The mice were divided into groups of six. The initial volumes of the leg of all the animals were measured using a plethysmometer. The oedema is induced in the leg by means of sub-plantar injection of 50 μl of saline solution containing 1% of carrageenan. The volume of the leg was measured at different time intervals. Said experimental model consists of two phases: a first, acute, phase lasting 6 hours and a second, chronic, phase, up to 72 hours.
The anti-inflammatory activity of the physical mixture of ketorolac and galactose was evaluated with the carrageenan induced mice hind paw edema assay, as described for ketogal. […]
The carrageenan induced mice hind paw oedema assay described by D'Agostino et al. (2007) was used to evaluate the acute anti-inflammatory activity of the conjugate. Mice were divided into control and test groups of six animals each. Initial paw volumes of all animals were measured using a plethysmometer apparatus (Ugo Basile, Milan, Italy) before treatment. Paw oedema was induced by a subplantar injection of 50 μL of saline containing 1% λ-carrageenan into the right hind paw. […] free acid and ketogal were orally administrated 1 h before carrageenan challenge. Paw volume was measured at different time intervals by plethysmometer. The increase in paw volume was evaluated as the difference between the paw volume measured at each time point and the basal paw volume measured immediately before carrageenan injection.

[3] = Pharmacokinetic studies (plasma, stomach, kidney, liver); format: in vivo, Wistar rats
Procedure: The pharmacokinetic profile of Ketogal and of ketorolac was evaluated in Wistar rats by measuring the concentration of the two compounds in the plasma, in the stomach, in the kidney, and in the liver. The rats received ketorolac (0.100 mg/kg) or Ketogal (0.163 mg/kg) by oral route and were sacrificed after 1 h, 2 h, 4 h, and 6 h from administration. The various specimens were treated with acetonitrile, and the suspension was “vortexed” and centrifuged at 3000 r.p.m. for 10 min. The organic phase was injected in the same HPLC system used for the stability assays.

[4] = Ketogal 0.163 mg/kg versus ketorolac 0.1 mg/kg, oral and subcutaneous administration

TNF-alpha level in liver (TNF-alpha): no different compared to control mice | Lipid peroxidation level in liver (malonyldialdehyde) (lipid peroxidation): no different compared to control mice | IL-6 level in liver (IL-6): no different compared to control mice | Liver histology (H&E) (male Swiss mice; ketogal 16.3 mg/Kg oral for 3, 5 and 7 days): normal liver histology | Kidney histology (male Swiss mice; ketorolac 10 mg/Kg, ketogal 16.3 mg/Kg, oral, after 3, 5 and 7 days): normal kidney histology | Presence of the pro-drug in plasma ([3]; oral, Ketogal 0.163 mg/kg): the pro-drug was not present | Presence of the pro-drug in the kidney ([3]; oral, Ketogal 0.163 mg/kg): no traces of the pro-drug | Presence of the pro-drug in the liver ([3]; oral, Ketogal 0.163 mg/kg): Ketogal reappeared
Structure (SMILES): O=C(c1ccccc1)c1ccc2n1CC[C@@H]2C(=O)OCC1O[C@H](O)C(O)C(O)[C@H]1O (mixture of isomers) [Ketogal, ketorolac-D-galactos-6′-yl ester]
Gastric PPAR-gamma protein expression (PPAR-gamma): not inhibited | Gastric COX-1 protein expression (COX-1): not inhibited | Gastric PGE synthase protein expression (PGE synthase): not inhibited | Analgesic activity compared with ketorolac [1, 4]: better analgesic and anti-inflammatory activity than ketorolac | Analgesic effect (number of writhing events compared to control) ([1]; oral, 60 min prior to acetic acid, ketorolac 0.01-10 mg/kg, Ketogal 0.0163-16.3 mg/kg): dose-dependent analgesic effect of higher than 0.163 mg/kg | Hepatic inflammation and/or damage (biochemical analysis) (male Swiss mice; ketogal 16.3 mg/Kg oral for 3, 5 and 7 days, liver lysates): no hepatic inflammation and/or damage | Stomach samples, ulcerogenicity (male Swiss mice; ketorolac 10 mg/Kg, ketogal 16.3 mg/Kg, oral, for 3 days): undamaged and similar to control | Anti-inflammatory activity compared with ketorolac [2, 4]: better analgesic and anti-inflammatory activity than ketorolac | Oedema of the leg ([2]; Ketogal 0.163-16.3 mg/kg oral, 1 h prior to carrageenan): considerably reduces the oedema of the leg in a time-dependent and dose-dependent way | Formation of oedema, first phase ([2]; Ketogal 0.163-16.3 mg/kg oral, first, acute phase (6 hours)): all the doses tested inhibited formation of oedema | Effect on oedema, second phase ([2]; Ketogal oral, second, chronic phase up to 72 hours): continued also in the second phase | Oral availability ([3]; compared with ketorolac): better oral availability than ketorolac; also recorded: increased the oral availability of ketorolac | Behaviour of the pro-drug in the stomach ([3]; oral, Ketogal 0.163 mg/kg): hydrolyses progressively, releasing ketorolac | Concentration of ketorolac in the liver after Ketogal versus drug alone ([3]; oral, Ketogal 0.163 mg/kg versus ketorolac 0.100 mg/kg): always higher following upon administration of Ketogal | Plasma levels of ketorolac after administration of Ketogal versus ketorolac as such ([3]; oral, Ketogal 0.163 mg/kg, ketorolac 0.100 mg/kg, 1 h, 2 h, 4 h, 6 h): higher than the ones observed following upon administration of the drug as such
